This is an account of results in patent EP0792647A1, “Porphyrins as urokinase-type plasminogen activator receptor antagonists” (BOEHRINGER MANNHEIM GMBH, priority 1996, dated 1997).

pIC50: −log10 of the molar value. Counter-ions that a name gives are not always drawn. Like-named read-outs stand apart in the source and are kept apart here.

For test [1], the target named is T1, human urokinase (uPA) binding to its specific receptor (uPAR) (Homo sapiens, UniProt Q03405). Nature of the test: ELISA-Test: inhibition of uPA binding to its specific receptor (uPAR).
In test [2] the target is T1, human urokinase (uPA) binding to its specific receptor (uPAR). The test is described as above. Particulars: synthetic or commercially available porphyrins; for IC50: read-out: IC50 (µg/ml) ELISA (converted). As for the experimental part: This test is described by P. Rettenerger et al. in Biol. Chem. Hoppe-Seyler 376, pp. 587-594 (1995). An alternate ELISA-test is described in Behrendt et al., Meth. Enzymol. 233 (1993), 207-222. • ELISA-Test: Inhibition of human urokinase (uPA) binding to its specific receptor (uPAR). The assays are performed in Microtiterplates (96 wells). The following solutions are used: • washing buffer: PBS-buffer (w/o Mg^2+Ca^2+) + 0,05% Tween 20; uPAR-solution 100 ng/ml (10 ng/well) • blocking solution 2% skimmed milk powder (Merck) in washing buffer • incubation buffer 0.5% skimmed milk powder in PBS uPA-solution 10 ng/well detection solutions (per microfilter plate): • (1) 6 ml (100 mM Tris-CI pH 7.5 + 0.15% Tween 80) + 1.5 ml (10 µg) Plasminogen in aqua bidest. • (2) 6 ml (100 mM Tris-CI pH 7.5 + 0.15% Tween 80) + 1.5 ml (7.5 mg) Chromozyme PL in aqua bidest.
The detection solution must be continously stirred.
Testing substances: the testing substances are solved in DMSO. They are used in the test system with a highest concentration of 100 µg/ml. Dissolutions are prepared using PBS.
Three controlls are performed: • a) positive controll: using 2% DMSO in PBS • b) negative controll: assay w/o receptor • c) inhibition controll: Inhibition (IC95 at 0.25 mg/ml) with Dextranesulfate (MW = 500.000)
Each well is incubated by 10 ng uPAR for 1 hour at roomtemperature (RT). After washing once each well is incubated for half an hour (37°C) with 200 µl/well blocking solution. After triple washing testing substance solution or controll solutions are added (50 µl/well and incubated for 15 min at RT. An additional 50 µl of uPA solution (10 ng in incubation buffer) are added. After 1 hour at RT a triple washing is performed.
Incubation 70 µl each of solution (1) and (2) at RT. After 20 min. a yellow color will be visible (the positive control reads an extinction of 1 after 40 min.). The detection is performed at […] (reference is […]) using a Dynatech MR 7000 ELISA reader.
To obtain the percentage of inhibition the following formula is used: % Inhibtion = 100-100* (Extinction (Test) - Extinction (Neg. contr.)/(Extinction (Pos. contr.) - Extinction (Neg. contr.)) [formula]

The target of test [3] is Urokinase (uPA not bound to uPAR) (Homo sapiens, UniProt P00749). Nature of the test: ENZ: Urokinase-activity-assay (uPA not bound to uPAR). The test is classed as biochemical. Particulars: assay without uPAR; for IC50: read-out: IC50 (µg/ml) ENZ (converted). As for the experimental part: ENZ: Urokinase-activity-assay (uPA not bound to uPAR)
This assay is identical to the uPA/uPAR assay of example one except that no uPAR is used, i.e. no incubation of the wells with uPAR and the following washing steps is necessary.

Test [4] addresses T2, NIH 3T3 cells transfected with a human urokinase receptor (Homo sapiens, UniProt Q03405).
T2 construct: expressed in transfected cells; host or cells: NIH 3T3 (clone NIH3T3 CH1 (15.10)), mouse fibroblasts
Nature of the test: Cellular assay: uPA binding to NIH 3T3 cells transfected with a human urokinase receptor. Particulars: for IC50: read-out: IC50 (µg/ml) cells (converted). The format is cell-based.
Experimental: An enzyme test was used to detect inhibtion of urokinase activity and a cellular assay using NIH 3T3 (from ATCC) cells transfected with a human urokinase receptor was obtained.
Medium: • DMEM (MEM dulbecco/Boehringer) with NaHCO3 and 4.5 g/l Glucose
add: • 10% FCS (Seromed) • 2 mM L-Glutamine • 1 mM Na-Pyruvat • 100 U/ml Penicillin • 100 µg/ml Streptomycin • 1 µg/ml G 418 (Geneticin) • sterilize all supplements by filtration
Take a 1 mg/ml fibronectin solution (in sterile water) and dilute an appropriate aligot with sterile PBS to a final concentration of 50 µg/ml. Coat the 96-well plate with 200 µl//well. Incubate for about 45 min. at room temperature. Remove the solution carefully. The wells should not be allowed to dry, use immediately. Prepare the cells during the 45 min. of incubation with fibronectin. NIH3T3 CH1 (15.10)-cells are grown to confluency in T 175 cell-culture flasks in the above described medium. Remove the media and rinse the cells with PBS, add 2 ml of Trypsin / EDTA solution for cell detachment. Stop trypsin activity by addition of approx. 6 ml medium . Take an aliquot of the cells to determine the cellnumber and adjust the celldensity to 8 x 10^5/ml with medium. Take the fibronectin coated 96 well palate and spread 100 µl cell-suspension/well, let the cells grow to confluency over night.
Discard the medium carefully and wash the cells by addition of 200 µl medium (without supplements) / well and again discarding the medium. Add 200 µl 2% skimmed milk in medium. Incubate for 30 minutes at roomtemperatur. Wash twice with 200 µl medium (w supplements) / well carefully (to remove unbound skimmed milk). Preincubate with 50 µl testcompound diluted in medium, respectively medium only for the controls for 20 minutes; add 50 µl uPA-solution [200 ng/ml]. Incubate for 60 minutes at roomtemperature; wash carefully for 3 times with medium (200 µl/well). […] Measure at a wavelength of 405 nm (reference: 490 nm) with an ELISA-Reader. The yellow colour will appear after about 45 mins.

T2 sequence (Q03405 23-305 limits assumed): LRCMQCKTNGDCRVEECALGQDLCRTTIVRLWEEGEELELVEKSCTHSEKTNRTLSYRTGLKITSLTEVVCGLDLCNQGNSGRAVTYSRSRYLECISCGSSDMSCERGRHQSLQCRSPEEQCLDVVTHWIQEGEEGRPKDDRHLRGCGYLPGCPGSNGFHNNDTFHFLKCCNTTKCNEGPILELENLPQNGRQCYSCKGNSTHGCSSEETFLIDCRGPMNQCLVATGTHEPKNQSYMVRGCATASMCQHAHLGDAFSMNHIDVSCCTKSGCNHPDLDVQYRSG
T1 sequence (Q03405 23-305 limits assumed): as above

In test [1], `C=CC1=C(C)C(=Cc2[nH]c(Cc3[nH]c(C=C4NC(=O)C(C)=C4C=C)c(C)c3CCC(=O)O)c(CCC(=O)O)c2C)NC1=O` [Bilirubine] yielded an inhibition at 300 µg/mL of 11%.

For `C=Cc1c(C)c2cc3nc(c(CC(=O)O)c4[nH]c(cc5nc(cc1[nH]2)C(C)=C5CC)c(C)c4C(=O)O)[C@@H](CCC(=O)O)[C@@H]3C` [Chlorin e6], the IC50 was 520 nM in test [2], 2350 nM in test [3] and 12.9 µM in test [4] (NIH3T3 CH1 (15.10)-cells).

As for `CCOC(=O)CCC1=C(C)c2cc3[nH]c(cc4nc(cc5[nH]c(cc1n2)c(C)c5CCC(=O)OCC)C(CCC(=O)OCC)=C4C)c(C)c3CCC(=O)OCC` [Coproporphyrin III tetraethylester], the results for the IC50 in test [2], in test [3] and in test [4] (NIH3T3 CH1 (15.10)-cells) were 678 nM, 95200 nM and 124 µM, respectively.

With `COC(=O)CCC1=C(C)c2cc3[nH]c(cc4nc(cc5[nH]c(cc1n2)c(CCC(=O)OC)c5C)C(S(=O)(=O)O)=C4C)c(S(=O)(=O)O)c3C` [Deuteroporphyrin IX 2,4 Disulfonic Acid dimethylester], the IC50 was 1820 nM in test [2] and 3510 nM in test [3].

`CC1=C(CCC(=O)O)c2cc3[nH]c(cc4nc(cc5[nH]c(cc1n2)c(C)c5C(O)CO)C(C)=C4C(O)CO)c(C)c3CCC(=O)O` (centres unmarked) [Deuteroporphyrin IX 2,4-Bis Glycol]: the values for the IC50 in test [2] and in test [3] were 8400 nM and 4280 nM, respectively.

For the compound `CCC1=C(C)c2cc3[nH]c(cc4nc(cc5[nH]c(cc1n2)c(C)c5CCC(=O)O)C(CCC(=O)O)=C4C)c(C)c3CC` [Mesoporphyrin IX Dihydrochloride], the IC50 in test [2] is 406 nM; in test [3], 2120 nM. For the same compound, the pIC50 in test [4] was 5.56.

Take `O=C(O)c1ccc(-c2c3nc(c(-c4ccc(C(=O)O)cc4)c4ccc([nH]4)c(-c4ccc(C(=O)O)cc4)c4nc(c(-c5ccc(C(=O)O)cc5)c5ccc2[nH]5)C=C4)C=C3)cc1` [meso-tetra-(4-Carboxyphenyl)-Porphine]: the figures for the IC50 in test [2], in test [3] and in test [4] (NIH3T3 CH1 (15.10)-cells) were 266 nM, 860 nM and 30.6 µM, respectively.

For the compound `O=S(=O)(O)c1ccc(-c2c3nc(c(-c4ccc(S(=O)(=O)O)cc4)c4ccc([nH]4)c(-c4ccc(S(=O)(=O)O)cc4)c4nc(c(-c5ccc(S(=O)(=O)O)cc5)c5ccc2[nH]5)C=C4)C=C3)cc1` [meso-tetra-(4-Sulfonatophenyl)-Porphine Dihydrochlorid], the IC50 was 214 nM in test [2] and 674 nM in test [3]. In test [4] (read-out: IC50 (µg/ml) cells, NIH3T3 CH1 (15.10)-cells), the pIC50 is 4.67.

Consider Al Phtalocyanine Tetrasulfonate, for which the “IC50 (µg/ml) ELISA” value in test [2] is given as 3,7 µg/ml. Further, in test [3], the “IC50 (µg/ml) ENZ” value is given as 2,3 µg/ml.

Regarding Hematoporphyrin D, the “IC50 (µg/ml) ELISA” value in test [2] is listed as 0,52 µg/ml. Further, in test [3], the “IC50 (µg/ml) ENZ” value is on record as 3,1 µg/ml. For the same compound, in test [4] (NIH3T3 CH1 (15.10)-cells), the “IC50 (µg/ml) cells” value is reported as 1,4 µg/ml.

Consider N-Methyl Protoporphyrin IX, for which, in test [2], the “IC50 (µg/ml) ELISA” value is recorded as 0,4 µg/ml.
